This passage reports IC50 results from patent publication US9682995B2, “Amino-substituted isothiazoles” (BAYER PHARMA AKTIENGESELLSCHAFT, priority 2013, dated 2017).

The structures appear in SMILES notation.

One test deals with HeLa. As to the kind of experiment: Proliferation assay (crystal violet), HeLa. Type of test: cell-based. The note with it: Homo sapiens, 96 h, 4 days, read-out: Inhibition of proliferation IC50 HeLa. Here is the method: Cultivated tumor cells (cells were ordered from ATCC, except HeLa-MaTu and HeLa-MaTu-ADR, which were ordered from EPO-GmbH, Berlin) were plated at a density of 1000 to 5000 cells/well, depending on the growth rate of the respective cell line, in a 96-well multititer plate in 200 μL of their respective growth medium supplemented 10% fetal calf serum. After 24 hours, the cells of one plate (zero-point plate) were stained with crystal violet (see below), while the medium of the other plates was replaced by fresh culture medium (200 μl), to which the test substances were added in various concentrations (0 μM, as well as in the range of 0.001-10 μM; the final concentration of the solvent dimethyl sulfoxide was 0.5%). The cells were incubated for 4 days in the presence of test substances. Cell proliferation was determined by staining the cells with crystal violet: the cells were fixed by adding 20 μl/measuring point of an 11% glutaric aldehyde solution for 15 minutes at room temperature. After three washing cycles of the fixed cells with water, the plates were dried at room temperature. The cells were stained by adding 100 μl/measuring point of a 0.1% crystal violet solution (pH 3.0). After three washing cycles of the stained cells with water, the plates were dried at room temperature. The dye was dissolved by adding 100 μl/measuring point of a 10% acetic acid solution. Absorption was determined by photometry at a wavelength of 595 nm. The change of cell number, in percent, was calculated by normalization of the measured values to the absorption values of the zero-point plate (=0%) and the absorption of the untreated (0 μm) cells (=100%). The IC50 values were determined by means of a 4 parameter fit.

A further test deals with CDK2/CycE (Homo sapiens (Human), UniProt P24941). As to the kind of experiment: CDK2/CycE kinase assay (TR-FRET). The note with it: 10 μM ATP; read-out: CDK2 avg (IC50 [mol/l]). The test is classed as biochemical. An excerpt:
CDK2/CycE-inhibitory activity of compounds of the present invention was quantified employing the CDK2/CycE TR-FRET assay as described in the following paragraphs.
Recombinant fusion proteins of GST and human CDK2 and of GST and human CycE, expressed in insect cells (Sf9) and purified by Glutathion-Sepharose affinity chromatography, were purchased from ProQinase GmbH (Freiburg, Germany). As substrate for the kinase reaction biotinylated peptide biotin-Ttds-YISPLKSPYKISEG (C-terminus in amid form) was used which can be purchased e.g. form the company JERINI peptide technologies (Berlin, Germany).
For the assay 50 nl of a 100 fold concentrated solution of the test compound in DMSO was pipetted into a black low volume 384 well microtiter plate (Greiner Bio-One, Frickenhausen, Germany), 2 μl of a solution of CDK2/CycE in aqueous assay buffer [50 mM Tris/HCl pH 8.0, 10 mM MgCl2, 1.0 mM dithiothreitol, 0.1 mM sodium ortho-vanadate, 0.01% (v/v) Nonidet-P40 (Sigma)] were added and the mixture was incubated for 15 min at 22° C. to allow pre-binding of the test compounds to the enzyme before the start of the kinase reaction. Then the kinase reaction was started by the addition of 3 μl of a solution of adenosine-tri-phosphate (ATP, 16.7 μM=>final conc. in the 5 μl assay volume is 10 μM) and substrate (1.25 μM=>final conc. in the 5 μl assay volume is 0.75 μM) in assay buffer and the resulting mixture was incubated for a reaction time of 25 min at 22° C. The concentration of CDK2/CycE was adjusted depending of the activity of the enzyme lot and was chosen appropriate to have the assay in the linear range, typical concentrations were in the range of 130 ng/ml. The reaction was stopped by the addition of 5 μl of a solution of TR-FRET detection reagents (0.2 μM streptavidine-XL665 [Cisbio Bioassays, Codolet, France] and 1 nM anti-RB(pSer807/pSer811)-antibody from BD Pharmingen [#558389] and 1.2 nM LANCE EU-W1024 labeled anti-mouse IgG antibody [Perkin-Elmer, product no. AD0077, as an alternative a Terbium-cryptate-labeled anti-mouse IgG antibody from Cisbio Bioassays can be used]) in an aqueous EDTA-solution (100 mM EDTA, 0.2% (w/v) bovine serum albumin in 100 mM HEPES/NaOH pH 7.0).
The resulting mixture was incubated 1 h at 22° C. to allow the formation of complex between the phosphorylated biotinylated peptide and the detection reagents. Subsequently the amount of phosphorylated substrate was evaluated by measurement of the resonance energy transfer from the Eu-chelate to the streptavidine-XL. Therefore, the fluorescence emissions at 620 nm and 665 nm after excitation at 350 nm was measured in a TR-FRET reader, e.g. a Rubystar (BMG Labtechnologies, Offenburg, Germany) or a Viewlux (Perkin-Elmer). The ratio of the emissions at 665 nm and at […] was taken as the measure for the amount of phosphorylated substrate. The data were normalised (enzyme reaction without inhibitor=0% inhibition, all other assay components but no enzyme=100% inhibition).
For orientation: Time-resolved FRET reads energy transfer from a long-lived donor to a nearby acceptor.

Take `COc1ccc(Oc2ccc(NC(=O)c3c(C)nsc3Nc3cc(C#N)ccn3)cn2)cc1` [Example 117, 5-[(4-Cyanopyridin-2-yl)amino]-N-[6-(4-methoxyphenoxy)pyridin-3-yl]-3-methyl-1,2-thiazole-4-carboxamide]: the IC50 in the test on HeLa is 3.2 µM; at CDK2/CycE, over 20 µM.

For `COC(=O)c1cnc(Nc2snc(C)c2C(=O)Nc2ccc(OC)nc2)cn1` [Example 32, Methyl 5-({4-[(6-methoxypyridin-3-yl)carbamoyl]-3-methyl-1,2-thiazol-5-yl}amino)-pyrazine-2-carboxylate], the figures for the IC50 with HeLa and at CDK2/CycE were 8.3 µM and over 20 µM, respectively.

For `Cc1nsc(Nc2cnc(C(=O)N(C)C)cn2)c1C(=O)Nc1ccc(F)c(F)c1` [Example 109, 5-({4-[(3,4-Difluorophenyl)carbamoyl]-3-methyl-1,2-thiazol-5-yl}amino)-N,N-dimethylpyrazine-2-carboxamide], the IC50 in the test with HeLa is 5 µM; on CDK2/CycE, over 20 µM.

Take `CCOC(=O)c1coc(Nc2snc(C)c2C(=O)Nc2ccc(F)c(F)c2)n1` [Example 98, Ethyl 2-({4-[(3,4-difluoro-phenyl)carbamoyl]-3-methyl-1,2-thiazol-5-yl}amino)-1,3-oxazole-4-carboxylate]: the IC50 with HeLa was 10 µM; at CDK2/CycE, over 20 µM.

Take `CCc1ccccc1NC(=O)c1c(C)nsc1Nc1cnc2cccc(C)c2n1` [Example 33, N-(2-Ethylphenyl)-3-methyl-5-[(8-methylquinoxalin-2-yl)amino]-1,2-thiazole-4-carboxamide]: the IC50 with HeLa is 2.2 µM; at CDK2/CycE, over 20 µM.

Take `COc1ccc(NC(=O)c2c(C)nsc2Nc2cnc3ccc(F)cc3n2)cn1` [Example 44, 5-[(7-Fluoroquinoxalin-2-yl)amino]-N-(6-methoxypyridin-3-yl)-3-methyl-1,2-thiazole-4-carboxamide]: the IC50 is 2.4 µM in the test with HeLa and over 20 µM on CDK2/CycE.

As to `COc1ccc(NC(=O)c2c(C)nsc2Nc2cccc(C#N)n2)cn1` [Example 37, 5-[(6-Cyanopyridin-2-yl)amino]-N-(6-methoxypyridin-3-yl)-3-methyl-1,2-thiazole-4-carboxamide], the figures for the IC50 in the test on HeLa and on CDK2/CycE were over 10 µM and over 20 µM, respectively.

As to `CCc1ccccc1NC(=O)c1c(C)nsc1Nc1nc(C)nc2sccc12` [Example 38, N-(2-Ethylphenyl)-3-methyl-5-[(2-methylthieno[2,3-d]pyrimidin-4-yl)amino]-1,2-thiazole-4-carboxamide], the values for the IC50 with HeLa and on CDK2/CycE were 5.3 µM and over 20 µM, respectively.

In the case of `COc1ccc(NC(=O)c2c(C)nsc2Nc2cnc3ccc(Cl)cc3n2)cn1` [Example 42, 5-[(7-Chloroquinoxalin-2-yl)amino]-N-(6-methoxypyridin-3-yl)-3-methyl-1,2-thiazole-4-carboxamide], the IC50 in the test with HeLa was 1.2 µM; on CDK2/CycE, over 20 µM.

Consider `Cc1nsc(Nc2nc3c(C(F)(F)F)cccc3s2)c1C(=O)Nc1ccc(F)c(F)c1` [Example 51, N-(3,4-Difluorophenyl)-3-methyl-5-{[4-(trifluoromethyl)-1,3-benzothiazol-2-yl]-amino}-1,2-thiazole-4-carboxamide], for which the IC50 in the test with HeLa is 0.57 µM; on CDK2/CycE, over 20 µM.

For `Cc1nsc(Nc2cc(C#N)ccn2)c1C(=O)Nc1ccc(OC2CCCCC2)nc1` [Example 118, 5-[(4-Cyanopyridin-2-yl)amino]-N-[6-(cyclohexyloxy)pyridin-3-yl]-3-methyl-1,2-thiazole-4-carboxamide], the IC50 was 1.7 µM in the test on HeLa and over 20 µM on CDK2/CycE.

`COc1ccc(NC(=O)c2c(C)nsc2Nc2cnc3c(F)c(F)ccc3n2)cn1` [Example 43, 5-[(5,6-Difluoroquinoxalin-2-yl)amino]-N-(6-methoxypyridin-3-yl)-3-methyl-1,2-thiazole-4-carboxamide]: the IC50 was 0.42 µM in the test on HeLa and over 20 µM on CDK2/CycE.

Take `COc1ccc(NC(=O)c2c(C)nsc2Nc2nc3c(C(F)(F)F)cccc3s2)cn1` [Example 48, N-(6-Methoxypyridin-3-yl)-3-methyl-5-{[4-(trifluoromethyl)-1,3-benzothiazol-2-yl]-amino}-1,2-thiazole-4-carboxamide]: the IC50 was 0.58 µM in the test on HeLa and over 20 µM on CDK2/CycE.

For the compound `CCNC(=O)c1csc(Nc2snc(C)c2C(=O)Nc2ccc(F)c(F)c2)n1` [Example 99, N-(3,4-Difluorophenyl)-5-{[4-(ethylcarbamoyl)-1,3-thiazol-2-yl]amino}-3-methyl-1,2-thiazole-4-carboxamide], the IC50 in the test with HeLa was 3.3 µM; on CDK2/CycE, over 20 µM.

For `Cc1nsc(Nc2cncc(C(=O)N(C)C)n2)c1C(=O)Nc1ccc(F)c(F)c1` [Example 104, 6-({4-[(3,4-Difluorophenyl)-carbamoyl]-3-methyl-1,2-thiazol-5-yl}amino)-N,N-dimethyl-pyrazine-2-carboxamide], the IC50 in the test with HeLa was 10 µM; on CDK2/CycE, over 20 µM.

With `CCc1ccnc(Nc2snc(C)c2C(=O)Nc2ccccc2CC)n1` [Example 17, N-(2-Ethylphenyl)-5-[(4-ethylpyrimidin-2-yl)amino]-3-methyl-1,2-thiazole-4-carboxamide], the IC50 is over 10 µM in the test on HeLa and over 20 µM at CDK2/CycE.

As for `CCc1ccccc1NC(=O)c1c(C)nsc1Nc1nccnc1C#N` [Example 34, 5-[(3-Cyanopyrazin-2-yl)amino]-N-(2-ethylphenyl)-3-methyl-1,2-thiazole-4-carboxamide], the IC50 in the test on HeLa is 6.7 µM; at CDK2/CycE it was over 20 µM.

Take `COc1ncc(NC(=O)c2c(C)nsc2Nc2ccc(C#N)cn2)cc1C` [Example 120, 5-[(5-Cyanopyridin-2-yl)amino]-N-(6-methoxy-5-methylpyridin-3-yl)-3-methyl-1,2-thiazole-4-carboxamide]: the IC50 in the test with HeLa was 1.9 µM; at CDK2/CycE, over 20 µM.

As for `Cc1nsc(Nc2ccc(C#N)cn2)c1C(=O)Nc1ccc(OC(C)C)nc1` [Example 110, 5-[(5-Cyanopyridin-2-yl)amino]-N-(6-isopropoxyridin-3-yl)-3-methyl-1,2-thiazole-4-carboxamide], the IC50 is 1.5 µM in the test with HeLa and over 20 µM at CDK2/CycE.

With `COC(=O)c1cnc(Nc2snc(C)c2C(=O)Nc2ccc(F)c(F)c2)o1` [Example 97, Methyl 2-({4-[(3,4-difluoro-phenyl)carbamoyl]-3-methyl-1,2-thiazol-5-yl}amino)-1,3-oxazole-5-carboxylate], the values for the IC50 in the test with HeLa and on CDK2/CycE were 10 µM and over 20 µM, respectively.

Turning to `CCc1ccccc1NC(=O)c1c(C)nsc1Nc1ccnc(C#N)n1` [Example 6, 5-[(2-Cyanopyrimidin-4-yl)amino]-N-(2-ethylphenyl)-3-methyl-1,2-thiazole-4-carboxamide], the IC50 with HeLa is 3.2 µM; at CDK2/CycE it was over 20 µM.
